Results as given in patent publication US9629816B2, “Small molecule therapeutic compounds targeting thioesterase deficiency disorders and methods of using the same” (The United States of America, as represented by the …, priority 2011, dated 2017).

How the values were obtained:
[1] = test system: PPT1-KO mice; test: NeuN immunohistochemistry of cortical tissue sections of PPT1-KO mice; type: in vivo, mouse; conditions: brain sections vs untreated PPT1-KO mice (FIG. 18)
Method: The NtBuHA treated and untreated mouse brain tissues were fixed in 3.7% paraformaldehyde, embedded in paraffin and processed for histological analyses. Briefly, after being treated with xylene and then successively with different concentrations of ethanol in phosphate buffered saline (PBS) (100% to 0%), tissue sections were blocked with 5% BSA in PBS. Sections were then probed overnight with anti-synaptophysin (Abcam) and anti-GFAP followed by incubation with alexa fluor 594 conjugated anti-rabbit and anti-mouse secondary antibodies (Invitrogen). Sections were mounted with DAPI containing mounting medium and imaged using Zeiss LSM 510 Inverted Meta confocal microscope (Carl Zeiss).
It has been reported that postmortem brain tissues from INCL patients as well as those from PPT1-KO mice manifest high levels of oxidative stress, which induces neuronal apoptosis contributing to neuropathology. […] Accordingly, a terminal deoxynucleotidyl transferase dUTP nick end labeling (TUNEL) assay was performed using cortical tissue sections from wild-type, untreated PPT1-KO and NtBuHA-treated PPT1-KO mice to determine the level of apoptosis. […] Quantitative analysis of the NeuN-positive cells in brain tissues from wild-type, untreated and NtBuHA-treated PPT1-KO mice (FIG. 18D) confirmed the visual assessment.

[2] = test system: INCL lymphoblasts; test: Depletion of [35S]cysteine-labeled lipid thioesters / hydrolysis of S-acylated proteins in PPT1-deficient lymphoblasts; type: cell-based, human; conditions: lymphoblasts of nine NCL patients; 48 hours vs untreated cells (FIG. 8)
Method: (§1) Thus, this derivative was chosen for more extensive study of its ability to hydrolyze […] proteins, and to deplete lipid-extractable [^35S]cysteine thioesters from fibroblasts and lymphoblasts. INCL fibroblasts were obtained and cultured as described in Example 4. The cells were then labeled with [^35S]cysteine. Briefly, following incubation for six hours in medium lacking serum and cysteine/cystine, the cells were washed and then re-cultured for varying lengths of time in medium containing NtBuHA, with a change of medium every 12 hours. As controls, [^35S]cysteine-labeled cells were cultured in drug-free medium as well as medium containing 1M HA. Following incubation, cells were washed twice with cold PBS and then centrifuged at 2,250 g at 4° C. for 5 minutes. Lipid thioesters were then extracted from the cells and subject to analysis by high-performance thin layer chromatography. Briefly, the extracted fatty acyl esters were dissolved in chloroform:methanol (1:1) and an aliquot applied to a TLC plate and resolved using a mixture of chloroform:methanol:water (65:25:4). The plates were then dried and autoradiographs obtained.
The ability of NtBuHA to deplete [^35S]cysteine-thioester containing compounds was tested using [^35S]cysteine-labeled, immortalized lymphoblasts. […]

[3] = test system: PPT1-KO mice; test: TUNEL assay of cortical tissue sections of PPT1-KO mice; type: in vivo, mouse; conditions: cortical tissue vs untreated PPT1-KO mice (FIG. 16)
Method: It has been reported that postmortem brain tissues from INCL patients as well as those from PPT1-KO mice manifest high levels of oxidative stress, which induces neuronal apoptosis contributing to neuropathology. […] Accordingly, a terminal deoxynucleotidyl transferase dUTP nick end labeling (TUNEL) assay was performed using cortical tissue sections from wild-type, untreated PPT1-KO and NtBuHA-treated PPT1-KO mice to determine the level of apoptosis. […] Since elevated levels of apoptosis in the brain of PPT1-KO mice and INCL patients mediate progressive decline in number of cortical neurons, the inventors also sought to further confirm whether decreased apoptosis in NtBuHA-treated PPT1-KO mice prevented neuronal loss. Accordingly, an immunohistochemical analyses of cortical tissue sections from wild-type, untreated-PPT1-KO, and NtBuHA-treated PPT1-KO mice was performed using antibodies against a neuronal marker, NeuN. […] Quantitative analysis of the NeuN-positive cells in brain tissues from wild-type, untreated and NtBuHA-treated PPT1-KO mice (FIG. 18D) confirmed the visual assessment.

[4] = test system: PPT1-KO mice; test: Western blot of ER-stress and oxidative-stress markers in brain lysates of PPT1-KO mice; type: in vivo, mouse
Method: Western blot analysis was performed as using standard methodology. Briefly 30 μg of protein was resolved in 4-12% Bis tris gel (Invitrogen) and electro-transferred in PVDF membrane. The membranes were blocked with 5% non fat dried milk for 1 hour at room temperature and were then probed overnight with primary antibody at 4 C. After washing the blots were incubated with horseradish peroxidase conjugated secondary antibody (Santacruz Biotechnology) for 1 hour at room temperature and developed using enhanced chemiluminescences detection reagents (Pierce). Primary antibodies used in this study were caspase-3, caspase-9 (cell signaling) SOD2, catalase, β-Actin (US Biologicals).
It has previously reported that endoplasmic reticulum (ER-) and oxidative-stress contribute to neuropathology in INCL patients. […] Therefore, the inventors sought to determine whether NtBuHA-treatment of PPT1-KO mice ameliorate the ER- and oxidative-stress in brain tissues of these mice. Accordingly, the levels of ER-stress markers Grp-78, Grp-94 and ATF6 were determined by Western blot analysis of brain lysates. […] Western blot analysis of brain lysates from NtBuHA-treated and untreated PPT1-KO mice was also performed to determine the levels of superoxide dismutase-2 (SOD2) and catalase, which increases with elevated oxidative-stress.

[5] = test system: PPT1-KO mice; test: Rotarod Performance Test, motor coordination of PPT1-KO mice; type: in vivo, mouse; conditions: 6-month and 8-month old PPT1-KO mice (FIG. 19A-D)
Method: Motor coordination of the untreated- and NtBuHA-treated PPT1-KO mice was assessed using Rotarod) (UGO Basile, Italy) at three different speeds (4, 8 and 12 rpm). In all these speeds the direction of rotation was reversed every 15 seconds. Animals were trained twice at all speed settings for 1 minute each for 3 days. Animals were then given a rest for 1 minute between two trials. Rotarod experiments were performed for at least 60 seconds on day 4 and the amount of time a mouse was on the rotarod before falling from the rotating rod was recorded.
Since NtBuHA functionally mimics PPT1, the inventors tested 6-month and 8-month old wild-type, untreated- and NtBuHA-treated PPT1-KO mice for motor coordination and exploratory behavior. The Rotarod Performance Test, which measures parameters such as riding time (seconds) and/or endurance was used to measure motor coordination. The open field test was utilized to evaluate the exploratory behavior.

[6] = test system: INCL lymphoblasts; test: TEM analysis of GRODs in cultured INCL lymphoblasts; type: cell-based, human
Method: Transmission electron microsocopy (TEM) of INCL lymphoblasts and fibroblasts was performed. Briefly, cells were first treated with 250 μM NtBuHA for 3 weeks. Medium was replaced with fresh 250 μM of NtBuHA at every 72 hours. After treatment, cells were fixed with 2.5% glutaraldehyde in sodium phosphate buffer, washed three times with Millonig's phosphate buffer and stained with 2.5% uranyl acetate. Ultra-thin sections were then prepared using AO Reichert Ultracut ultramicrotome, stained with lead citrate and examined by using Zeiss EM10 CA.
Accordingly, untreated- and NtBuHA-treated cultured INCL lymphoblasts were analyzed using TEM.
For a therapeutic agent to be effective for INCL it must not only mediate depletion of ceroid by cleaving thioester linkage in S-acylated proteins but it must also prevent re-accumulation of ceroid. […] Some of these cultures were washed with PBS and then cultured for an additional 3 weeks in medium without NtBuHA before being analyzed by TEM.

[7] = test system: INCL fibroblasts; test: Depletion of [35S]cysteine-labeled lipid thioesters in INCL fibroblasts; type: cell-based, human; conditions: treatment for 24 and 48 hours vs untreated control cells (FIG. 7)
Method: as §1

## CC(C)(C)NO [NtBuHA, N-(tert-Butyl)hydroxylamine]
[1]
  NeuN-positive cells: modestly higher level of NeuN-positive cells
[2]
  intensity of [35S]cysteine-labeled lipid bands: clear reduction in the intensity
[3]
  TUNEL-positive apoptotic cells: appreciably lower levels of TUNEL-positive apoptotic cells
[4]; brain lysates vs untreated PPT1-KO mice (FIG. 14B)
  levels of SOD2 and catalase: significantly reduced the levels of both SOD2 and catalase
[4]; brain tissues (FIG. 14A)
  levels of ER-stress markers Grp-78, Grp-94 and ATF6: levels of all three ER-stress markers were reduced
[5]
  motor function (Rotarod): retained near normal motor function
[6]; 250 μM for 3 weeks vs untreated controls (FIG. 9A-C)
  GRODs in INCL lymphoblasts: either no GRODs, FIG. 9B, or a substantially reduced number of GRODs that were considerably smaller in size
[6]; 3 weeks treatment, then additional 3 weeks in medium without NtBuHA (FIG. 9D, 11)
  GRODs after withdrawal of treatment: withdrawal from the culture medium caused reaccumulation
[7]
  intensity of [35S]cysteine-labeled lipid extractable thioester compounds: significantly reduced intensity
